Experimental data taken from patent US7700272B2, “Polynucleotides encoding acetylcholine-gated chloride channel subunits of Caenorhabditis elegans” (priority 2004, dated 2010).
Where “and” joins values, the source holds several entries; their conditions need not be identical. Equal entries are not always repeated. Entries after “also recorded” stand apart in the source; their conditions may differ. Where two headings read alike, the source gives them in different places. Marks after values point to notes of the source that are not given here.

Columns and labels:
[1] = biological target: T1, ACC-1G6.4 channel (Caenorhabditis elegans, UniProt Q21005); experiment: Two-electrode voltage-clamp of Xenopus oocytes expressing ACC-1G6.4 homomeric channel; format: cell-based, C. elegans; details: for response (in words): 1 mM
T1 construct: Agonist: percentage of maximal acetylcholine-elicited response; other: compound at 0.1 mM; Agonist: percentage of maximal acetylcholine-elicited response; other: compound at 0.2 mM; other: compound at 0.4 mM; other: compound at 0.8 mM; Agonist: percentage of maxim
Text: (§1) For capped cRNA synthesis, cDNAs were subcloned into the pT7N vector, which contains a T7 RNA polymerase promoter, the 5′- and 3′-UTR of Xenopus laevis beta-globin, and an encoded poly(A+) tail (Cary R B, Klymkowsky M W, Evans R M, Domingo A, Dent J A, Backhus L E (1994) Vimentin's tail interacts with actin-containing structures in vivo. J Cell Sci 107:1609-1622.). The pT7NcDNA constructs were linearized with Sal I (ACC-2D6.3) or BamHI (ACC-1G6.4) and transcribed using the MEGAscript Kit (Ambion, Austin, Tex., USA). Synthesized cRNAs were recovered by LiCl precipitation and resuspended in nuclease-free H2O at final concentration of 1 microgram/ml.
(§2) Oocytes were harvested from mature female Xenopus leavis according to standard procedures (Goldin, A. L. (1992) Maintenance of Xenopus laevis and oocyte injection. Methods Enzymol. 207: 266-79.). To remove inner ovarian epithelium, thecal cell layer, and follicular cells, the ovarian pieces were placed in OR-2 solution: 82.5 mM NaCl, 2 mM KCl, 1 mM MgCl2, and 5 mM Hepes (pH 7.5) containing 1 mg/ml type I collagenase (Sigma, St Louis Mo., USA) either for 3 hours at 20° C. with gentle agitation or for 1 hour followed by manual defolliculization. The stage VI defolliculated oocytes were placed in ND96 solution (96 mM NaCl, 2 mM KCl, 1.8 mM CaCl2, 1 mM MgCl2, and 5 mM Hepes, pH7.5). Oocytes were injected with 40 nl of cRNA using the Nanoject system (Drummond Scientific, Broomall, Pa., USA). Injected oocytes were incubated at 20° C. in ND96 supplemented with […] gentamycin and […] pyruvate. Oocytes were allowed to express cRNA for two days before measurements were taken.
(§3) Two-electrode voltage-clamp recordings were performed using the AxoClamp 2B amplifier (Axon Instruments, Foster City, Calif., USA). Microelectrodes were pulled from borosilicate glass capillaries (Word Precision Instruments, Inc., Sarasota, Fla., USA) on the P-97 micropipette puller Sutter Instruments, Novato, Calif., USA). […] Each oocyte was placed in RC-12 recording chamber (Warner Instrument Inc., Hamden, Conn., USA) or a Maltese cross chamber (ALA Scientific Instruments, Westbury, N.Y., USA) and clamped at −80 mV. Data were acquired at 1 kHz using Clampex software (Axon Instruments, Foster City, Calif., USA).
(§4) Dose-response curves for agonists were generated by their applying the agonist in increasing concentrations followed by 3-9 min washes at each concentration. To determine EC50 and Hill coefficient agonist dose response curves were fit using the following equation: f(I)=(Imax[I]^n/(EC50^n+[I]^n))+Imin, where I is the normalized response to agonist at certain concentration, Imax is the maximal response elicited by a saturating concentration of agonist, EC50 is the concentration of agonist inducing half-maximal response, n is the Hill coefficient, and Imin is the normalized response at lowest agonist concentration.
(§5) The mean and standard error of the mean of peak current responses of at least three oocytes per experiment are represented.
(§6) All drugs were obtained from Sigma-Aldrich (St. Louis, Mo. USA) except imidicloprid (IMI) which was provided by Crompton Co. (Guelph, ON, Canada). Drugs were dissolved in ND96 except IMI, which was made as a stock solution in DMSO and diluted to working concentrations in ND96. If required, drug solutions were adjusted to pH 7.5 with either NaOH or HCl. Fresh solutions were prepared before measurements and stored at 4° C. for 1-5 days.

[2] = biological target: ACC-2D6.3 channel (Caenorhabditis elegans, UniProt Q18812); experiment: cell-based
Text: as §1, §2, §3, §4, §5, §6

[3] = system: ACC-3D10.5; experiment: Two-electrode voltage-clamp of Xenopus oocytes injected with ACC-3D10.5 cRNA; format: cell-based, C. elegans; details: 1 mM
Experimental: (§7) Oocytes were harvested from mature female Xenopus leavis according to standard procedures (Goldin, A. L. (1992) Maintenance of Xenopus laevis and oocyte injection. Methods Enzymol. 207: 266-79.). To remove inner ovarian epithelium, thecal cell layer, and follicular cells, the ovarian pieces were placed in OR-2 solution: 82.5 mM NaCl, 2 mM KCl, 1 mM MgCl2, and 5 mM Hepes (pH 7.5) containing 1 mg/ml type I collagenase (Sigma, St Louis Mo., USA) either for 3 hours at 20° C. with gentle agitation or for 1 hour followed by manual defolliculization. The stage VI defolliculated oocytes were placed in ND96 solution (96 mM NaCl, 2 mM KCl, 1.8 mM CaCl2, 1 mM MgCl2, and 5 mM Hepes, pH7.5). Oocytes were injected with 40 nl of cRNA using the Nanoject system (Drummond Scientific, Broomall, Pa., USA). Injected oocytes were incubated at 20° C. in ND96 supplemented with 100 mg/ml gentamycin and 550 mg/ml pyruvate. Oocytes were allowed to express cRNA for two days before measurements were taken.

[4] = system: ACC-4E9.9; experiment: Two-electrode voltage-clamp of Xenopus oocytes injected with ACC-4E9.9 cRNA; format: cell-based, C. elegans; details: 1 mM
Experimental: as §7

[5] = system: ACC-2D6.3+ACC-3D10.5; format: cell-based, C. elegans; details: 1 mM
Experimental: as §7

[6] = system: ACC-2D6.3+ACC-4E9.9; format: cell-based, C. elegans; details: 1 mM
Experimental: as §7

[7] = biological target: rat α9nAChRs (Rattus norvegicus, UniProt P43144); details: cited from earlier work
[8] = system: ACC-2D6.3 channel; experiment: cell-based
Text: as §1, §2, §3, §4, §5, §6

[9] = system: Aplysia receptors mediating the slow desensitizing chloride-dependent response; details: cited from earlier work; for EC50: read-out: EC50 (range)
[10] = read-out: Agonist: percentage of maximal acetylcholine-elicited response
[11] = concentration tested in brackets where printed
[12] = concentration tested in brackets where printed, listed as d-tubocurarine

T1 sequence (Q21005 whole entry, looked up): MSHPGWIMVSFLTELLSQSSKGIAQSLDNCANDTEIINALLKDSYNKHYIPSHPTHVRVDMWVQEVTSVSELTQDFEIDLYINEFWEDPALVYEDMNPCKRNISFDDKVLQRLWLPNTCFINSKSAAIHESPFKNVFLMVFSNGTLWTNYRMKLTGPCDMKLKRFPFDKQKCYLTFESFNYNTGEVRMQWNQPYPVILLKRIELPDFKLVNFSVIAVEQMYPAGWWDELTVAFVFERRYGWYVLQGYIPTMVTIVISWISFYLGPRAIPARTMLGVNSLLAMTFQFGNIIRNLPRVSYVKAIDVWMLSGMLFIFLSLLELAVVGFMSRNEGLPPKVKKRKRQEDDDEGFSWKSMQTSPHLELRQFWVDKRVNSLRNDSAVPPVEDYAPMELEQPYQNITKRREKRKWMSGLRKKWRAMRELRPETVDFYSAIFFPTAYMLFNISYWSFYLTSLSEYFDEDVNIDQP
rat α9nAChRs, sequence (P43144 26-479): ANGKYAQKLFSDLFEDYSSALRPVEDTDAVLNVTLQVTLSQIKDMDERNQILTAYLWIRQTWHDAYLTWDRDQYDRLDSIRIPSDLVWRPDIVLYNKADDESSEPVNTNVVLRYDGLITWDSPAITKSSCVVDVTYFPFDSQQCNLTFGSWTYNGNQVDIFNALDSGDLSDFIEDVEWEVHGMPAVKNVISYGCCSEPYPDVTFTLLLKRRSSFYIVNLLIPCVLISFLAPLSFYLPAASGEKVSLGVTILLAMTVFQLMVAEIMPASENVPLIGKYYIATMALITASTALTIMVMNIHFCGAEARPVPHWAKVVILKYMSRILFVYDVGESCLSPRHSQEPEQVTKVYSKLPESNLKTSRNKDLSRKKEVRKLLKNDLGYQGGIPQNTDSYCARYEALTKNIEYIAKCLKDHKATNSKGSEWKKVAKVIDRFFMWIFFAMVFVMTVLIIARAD
ACC-2D6.3 channel (Caenorhabditis elegans, UniProt Q18812), sequence (Q18812 whole entry, looked up): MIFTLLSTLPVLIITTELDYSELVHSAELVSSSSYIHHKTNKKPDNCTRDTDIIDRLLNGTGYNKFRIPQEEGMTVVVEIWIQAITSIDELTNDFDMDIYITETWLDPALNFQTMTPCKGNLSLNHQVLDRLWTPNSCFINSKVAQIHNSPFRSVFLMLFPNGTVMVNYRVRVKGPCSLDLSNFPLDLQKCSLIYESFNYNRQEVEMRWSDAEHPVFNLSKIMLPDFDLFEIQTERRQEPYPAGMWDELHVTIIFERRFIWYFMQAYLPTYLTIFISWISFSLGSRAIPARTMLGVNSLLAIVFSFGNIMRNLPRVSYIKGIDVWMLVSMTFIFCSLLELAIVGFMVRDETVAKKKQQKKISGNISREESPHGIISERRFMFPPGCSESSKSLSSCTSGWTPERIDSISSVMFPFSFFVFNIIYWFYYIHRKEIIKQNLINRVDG

Compound: C[N+](C)(C)CCCCCC[N+](C)(C)C [C6, hexamethonium]
- agonist action (in words) [1]: simultaneously as an agonist and an antagonist
- antagonist action (in words) [1]: antagonists
- activation at 200 µM [1, 10]: 0%
- activation at 1000 µM [1, 10]: 10 ± 2.6%
- Agonist: percentage of maximal acetylcholine-elicited response [2]: 0%
- antagonist action (in words) [2]: antagonists

Compound: NCCCC(=O)O [GABA]
- response (in words) [1]: did not respond
- response (in words) ([2]; 1 mM): did not respond
- response (in words) [3]: did not respond
- response (in words) [4]: did not respond
- response (in words) [5]: Neither did ACC-2D6.3+ACC-3D10.5 nor ACC-2D6.3+ACC-4E9.9 expressing oocytes respond
- response (in words) [6]: Neither did ACC-2D6.3+ACC-3D10.5 nor ACC-2D6.3+ACC-4E9.9 expressing oocytes respond

Compound: O=[N+]([O-])NC1=NCCN1Cc1ccc(Cl)nc1 [IMI, imidacloprid]
- Antagonist: percentage decrease in a response to acetylcholine [1]: 0%
- activation at 10 µM ([1]; compound at 10 μM, read-out: Agonist: percentage of maximal acetylcholine-elicited response): 0%
- antagonist action (in words) [1, 11]: no effect
- antagonist action (in words) [2]: only partially blocked

Compound: CN1[C@@H]2CC[C@H]1C[C@@H](OC(=O)C(CO)c1ccccc1)C2 (stereo partly shown) [atropine]
- IC50 [7]: 1 µM
- agonist action (in words) [7]: no agonistic
- antagonist action (in words) [7]: Antagonist

Compound: O=c1cccc2n1C[C@@H]1CNC[C@H]2C1 [cytisine]
- Antagonist: percentage decrease in a response to acetylcholine [1]: 66.8 ± 3% and 95 ± 1.4%
- IC50 [1]: ~10 µM
- agonist action (in words) [1]: weak agonists and/or antagonists; also recorded: no agonistic activity
- antagonist action (in words) [1]: only as an antagonist
- activation at 800 µM [1, 10]: 0%
- Agonist: percentage of maximal acetylcholine-elicited response [2]: 15.5 ± 2.9%
- EC50 [2]: ~1000 µM
- IC50 [2]: ~100 µM
- concentrations at which channels responded [8]: 800 to 1000 µM
- agonist action (in words) [9]: Weak partial agonist
- estimated relative effectiveness versus acetylcholine [9]: ~0.14
- EC50 [9]: ~100 µM
- IC50 [7]: 43.1 µM
- agonist action (in words) [7]: no agonistic activity
- antagonist action (in words) [7]: Antagonist

Compound: COc1cc2c3cc1Oc1cc(ccc1O)C[C@@H]1c4c(cc(OC)c(O)c4Oc4ccc(cc4)C[C@@H]3N(C)CC2)CC[N+]1(C)C [d-TC, d-tubocurarine]
- Antagonist: percentage decrease in a response to acetylcholine [1]: 100^a ^ %
- IC50 ([1]; Table 4, order of magnitude, read-out: IC50 (range or bound)): < 20 µM
- Agonist: percentage of maximal acetylcholine-elicited response ([1]; compound at 20 μM): 0%
- antagonist action (in words) [1, 11]: Antagonist
- antagonist action (in words) [1, 12]: irreversibly
- Agonist: percentage of maximal acetylcholine-elicited response ([2]; compound at 20 μM): 0%
- antagonist action (in words) [2, 11]: Antagonist
- antagonist action (in words) [2, 12]: irreversibly
- IC50 ([2]; read-out: IC50 (range or bound), Table 4, order of magnitude): < 20 µM
- IC50 ([9]; Table 4): ~40 µM
- antagonist action (in words) [9]: Antagonist
- IC50 ([7]; Table 4, read-out: IC50): 0.3 µM
- antagonist action (in words) [7]: Antagonist

Compound: CO[C@H]1CC=C2CCN3CCC4=C(CC(=O)OC4)[C@]23C1 [dβe, dihydro-β-erythroidine]
- IC50 ([1]; Table 4, order of magnitude, read-out: IC50 (range)): ~100 µM
- Agonist: percentage of maximal acetylcholine-elicited response ([1]; compound at 0.4 mM): 0%
- antagonist action (in words) [1, 11]: Antagonist
- antagonist action (in words) ([1]; concentration tested in brackets where printed, listed as Dihydro-β-erythroidine): antagonist
- antagonist action (in words) ([1]; concentration tested in brackets where printed, listed as dihydro-β-erythroidine): antagonists
- Agonist: percentage of maximal acetylcholine-elicited response [2]: 0%
- IC50 [2]: ~10 µM
- IC50 ([9]; Table 4): ~20 µM
- antagonist action (in words) [9]: Antagonist
- IC50 ([7]; Table 4, read-out: IC50): 24.2 µM
- antagonist action (in words) [7]: Antagonist

Compound: N[C@@H](CCC(=O)O)C(=O)O [glutamate]
- response (in words) [1]: did not respond
- response (in words) ([2]; 1 mM): did not respond
- response (in words) [3]: did not respond
- response (in words) [4]: did not respond
- response (in words) [5]: Neither did ACC-2D6.3+ACC-3D10.5 nor ACC-2D6.3+ACC-4E9.9 expressing oocytes respond
- response (in words) [6]: Neither did ACC-2D6.3+ACC-3D10.5 nor ACC-2D6.3+ACC-4E9.9 expressing oocytes respond

Compound: NCC(=O)O [glycine]
- response (in words) [1]: did not respond
- response (in words) [3]: did not respond
- response (in words) [4]: did not respond

Compound: NCCc1c[nH]cn1 [histamine]
- response (in words) [1]: did not respond
- response (in words) [3]: did not respond
- response (in words) [4]: did not respond

Compound: C[C@@H]1O[C@H](C[N+](C)(C)C)C[C@H]1O [muscarine]
- Antagonist: percentage decrease in a response to acetylcholine [1]: 51.6 ± 5.9%
- IC50 (range) [1]: IC50: mM range
- agonist action (in words) [1]: no agonistic activity
- antagonist action (in words) [1]: Antagonist; also recorded: weak antagonistic activity
- activation at 1000 µM [1, 10]: 0%
- IC50 [7]: 84 µM
- agonist action (in words) [7]: no agonistic activity
- antagonist action (in words) [7]: Antagonist

Compound: CN1CCCC1c1cccnc1 (stereo not shown) [nicotine]
- EC50 [1]: ~1000 µM
- IC50 [1]: ~100 µM
- agonist action (in words) [1]: weak agonists and/or antagonists; also recorded: very weak agonist; also recorded: poorly; also recorded: Weak partial agonist
- antagonist action (in words) [1]: partial antagonist
- activation at 100 µM [1, 10]: 5.2 ± 1.2%
- activation at 1000 µM [1, 10]: 12 ± 2.7%
- EC50 [2]: ~1000 µM
- antagonist action (in words) [2]: no antagonistic
- concentrations at which channels responded [8]: 800 to 1000 µM
- EC50 ([9]; Table 4, order of magnitude): ~100 µM
- agonist action (in words) [9]: Weak partial agonist
- agonist action (in words) [7]: no agonistic activity
- antagonist action (in words) [7]: Antagonist

Compound: NCCc1c[nH]c2ccc(O)cc12 [serotonin]
- response (in words) [1]: not observed
- activation at 1000 µM [1, 10]: 0%
- current response ([2]; 1 mM): 10-30 nA
- Agonist: percentage of maximal acetylcholine-elicited response ([2]; compound at 1 mM): 3.7 ± 0.4%
- response (in words) [3]: not observed
- response (in words) [4]: not observed
- response (in words) [5]: Neither did ACC-2D6.3+ACC-3D10.5 nor ACC-2D6.3+ACC-4E9.9 expressing oocytes respond
- response (in words) [6]: Neither did ACC-2D6.3+ACC-3D10.5 nor ACC-2D6.3+ACC-4E9.9 expressing oocytes respond

Compound: O=C1C[C@@H]2OCC=C3CN4CC[C@]56c7ccccc7N1[C@H]5[C@H]2[C@H]3C[C@H]46 [strychnine]
- Antagonist: percentage decrease in a response to acetylcholine [1]: 96 ± 1.2%
- IC50 ([1]; IC50 (block of channel)): 4.61 ± 0.27 µM
- IC50 ([1]; IC50 (range or bound)): ~10 µM
- activation at 50 µM [1, 10]: 0%
- Agonist: percentage of maximal acetylcholine-elicited response [2]: 0%
- antagonist action (in words) [2]: Antagonist
- estimated Hill coefficient (antagonist) [2]: 1.38±0.12
- IC50 ([2]; IC50 (block of channel)): 2.95 ± 0.8 µM
- IC50 ([2]; IC50 (range or bound)): ~10 µM
- IC50 [7]: 0.0179 µM

Compound: α-bungarotoxin [α-BT]
- Agonist: percentage of maximal acetylcholine-elicited response [1]: 0%
- Antagonist: percentage decrease in a response to acetylcholine [1]: 0%
- antagonist action (in words) [1]: no effect; also recorded: not blocked; also recorded: no antagonistic
- Agonist: percentage of maximal acetylcholine-elicited response [2]: 0%
- Antagonist: percentage decrease in a response to acetylcholine [2]: 0%
- IC50 [9]: ~1 µM
- antagonist action (in words) [9]: Antagonist
- antagonist action (in words) [7]: Antagonist
- IC50 ([7]; read-out: IC50): 0.004 µM
